{
  "source": "patent US20250346585A1",
  "about": "(Alexion Pharmaceuticals, Inc., priority 2022, published 2025)",
  "data": [
    {"target": "Human complement C1s enzyme (Homo sapiens (Human), UniProt P09871)", "sequence (P09871 438-688 limits assumed)": "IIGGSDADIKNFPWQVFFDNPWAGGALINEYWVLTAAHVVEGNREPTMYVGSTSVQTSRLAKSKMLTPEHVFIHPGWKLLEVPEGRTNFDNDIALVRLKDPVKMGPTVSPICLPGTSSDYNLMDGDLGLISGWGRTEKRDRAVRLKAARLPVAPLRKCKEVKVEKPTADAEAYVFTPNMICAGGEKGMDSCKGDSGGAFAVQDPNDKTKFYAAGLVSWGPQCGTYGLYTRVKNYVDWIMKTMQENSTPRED", "sequence (P09871 16-437 partner limits assumed)": "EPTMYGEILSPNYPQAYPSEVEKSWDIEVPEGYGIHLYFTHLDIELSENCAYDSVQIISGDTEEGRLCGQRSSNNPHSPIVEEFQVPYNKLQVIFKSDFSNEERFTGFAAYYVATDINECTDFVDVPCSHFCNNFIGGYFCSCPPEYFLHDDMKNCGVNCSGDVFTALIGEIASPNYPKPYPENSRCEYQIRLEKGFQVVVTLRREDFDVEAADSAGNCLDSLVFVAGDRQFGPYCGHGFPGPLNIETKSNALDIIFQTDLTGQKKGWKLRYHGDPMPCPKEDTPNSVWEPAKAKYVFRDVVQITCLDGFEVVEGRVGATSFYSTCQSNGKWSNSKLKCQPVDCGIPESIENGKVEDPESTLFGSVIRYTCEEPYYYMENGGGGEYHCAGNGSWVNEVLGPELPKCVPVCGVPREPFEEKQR", "test": "Human C1s enzyme assay", "format": "biochemical", "details": "Human C1s enzyme assay of Example 3; read-out: IC50 (Stars)", "procedure,_shortened": "(§1)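 Purified serum-derived human C1s (1.16 nM final) preincubated 5 min at room temperature with compound in 50 mM Tris, 1 M NaCl, pH 7.5. Z-L-Lys-SBzl thioester substrate and DTNB added (100 μM each, final); A405 read every 30 s for 30 min. IC50 from nonlinear regression of reaction rates against compound concentration.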", "units": {"IC50": "nM"}, "values": [
      {"smiles": "CC1c2ccccc2-c2cc(C(=O)NCC(=O)N3CC4(C[C@H]3C(=O)NCc3cc(C(=N)N)cs3)OCCO4)ccc21", "note": "(stereo partly drawn) [Compound 110, (8S)—N-((4-carbamimidoylthiophen-2-yl)methyl)-7-((9-methyl-9H-fluorene-3-carbonyl)glycyl)-1,4-dioxa-7-azaspiro[4.4]nonane-8-carboxamide]", "IC50": "< 100"},
      {"smiles": "Cc1ccc(Oc2ccc(C(=O)NCC(=O)N3C[C@@](F)(CF)C[C@H]3C(=O)N[C@H](C)c3cc(C(=N)N)cs3)cc2)cc1", "note": "[Compound 14, (2S,4R)—N—((R)-1-(4-carbamimidoylthiophen-2-yl)ethyl)-4-fluoro-4-(fluoromethyl)-1-((4-(p-tolyloxy)benzoyl)glycyl)pyrrolidine-2-carboxamide]", "IC50": "< 100"},
      {"smiles": "N=C(N)c1csc(CNC(=O)[C@@H]2CC3(CN2C(=O)CNC(=O)c2ccc(-c4ccc(F)cc4)cc2)OCCO3)c1", "note": "[Compound 73, (S)—N-((4-carbamimidoylthiophen-2-yl)methyl)-7-((4′-fluoro-[1,1′-biphenyl]-4-carbonyl)glycyl)-1,4-dioxa-7-azaspiro[4.4]nonane-8-carboxamide]", "IC50": "< 100"},
      {"smiles": "N=C(N)c1csc(CNC(=O)[C@@H]2CC3(CN2C(=O)CNC(=O)c2ccc(-c4ccc(C(F)(F)F)cc4)cc2)OCCO3)c1", "note": "[Compound 116, (S)—N-((4-carbamimidoylthiophen-2-yl)methyl)-7-((4′-(trifluoromethyl)-[1,1′-biphenyl]-4-carbonyl)glycyl)-1,4-dioxa-7-azaspiro[4.4]nonane-8-carboxamide]", "IC50": "< 100"},
      {"smiles": "CC(NC(=O)[C@@H]1CC2(CN1C(=O)CNC(=O)c1ccc(-c3ccc(Cl)cn3)cc1)OCCO2)c1cc(C(=N)N)cs1", "note": "(stereo in doubt) [Compound 151, (S)—N—((S)-1-(4-carbamimidoylthiophen-2-yl)ethyl)-7-((4-(5-chloropyridin-2-yl)benzoyl)glycyl)-1,4-dioxa-7-azaspiro[4.4]nonane-8-carboxamide]", "IC50": "< 100"},
      {"smiles": "C[C@H](O)[C@H](O)[C@@H](O)[C@@H](O)CNCC(=O)NCCOC[C@@]12C[C@@H]1N(C(=O)CNC(=O)c1ccc(Oc3ccc(F)cc3)cc1)[C@H](C(=O)N[C@H](C)c1cc(C(=N)N)cs1)C2", "note": "[Compound 84, (1S,3S,5R)—N—((R)-1-(4-carbamimidoylthiophen-2-yl)ethyl)-2-((4-(4-fluorophenoxy)benzoyl)glycyl)-5-((2-(2-(((2S,3S,4S,5S)-2,3,4,5-tetrahydroxyhexyl)amino)acetamido)ethoxy)methyl)-2-azabicyclo[3.1.0]hexane-3-carboxamide]", "IC50": "< 100"},
      {"smiles": "O=C(NCC(=O)N1CC2(C[C@H]1C(=O)NCc1cc(Br)cs1)OCCO2)c1ccc(Oc2ccc(F)cc2)cc1", "note": "[Compound 75, (S)—N-((4-bromothiophen-2-yl)methyl)-7-((4-(4-fluorophenoxy)benzoyl)glycyl)-1,4-dioxa-7-azaspiro[4.4]nonane-8-carboxamide]", "IC50": "> 1000"},
      {"smiles": "Cc1cc(C(=O)NCC(=O)N2C[C@@](F)(CF)C[C@H]2C(=O)N[C@H](C)c2cc(C(=N)N)cs2)ccc1Oc1ccccc1", "note": "[Compound 32, (2S,4R)—N—((R)-1-(4-carbamimidoylthiophen-2-yl)ethyl)-4-fluoro-4-(fluoromethyl)-1-((3-methyl-4-phenoxybenzoyl)glycyl)pyrrolidine-2-carboxamide]", "IC50": "< 100"},
      {"smiles": "Cc1ccc(Oc2ccc(C(=O)NCC(=O)N3[C@H]4C[C@@]4(C)C[C@H]3C(=O)N[C@H](C)c3ccc(C(=N)N)s3)cc2)cc1", "note": "[Compound 26, (1S,3S,5S)—N—((R)-1-(5-carbamimidoylthiophen-2-yl)ethyl)-5-methyl-2-((4-(p-tolyloxy)benzoyl)glycyl)-2-azabicyclo[3.1.0]hexane-3-carboxamide]", "IC50": "< 100"},
      {"smiles": "C[C@@H](NC(=O)[C@@H]1C[C@@H](S(C)(=O)=O)CN1C(=O)CNC(=O)c1ccc2c(c1)-c1ccccc1C2(F)F)c1cc(C(=N)N)cs1", "note": "[Compound 61, (2S,4R)—N—((R)-1-(4-carbamimidoylthiophen-2-yl)ethyl)-1-((9,9-difluoro-9H-fluorene-3-carbonyl)glycyl)-4-(methylsulfonyl)pyrrolidine-2-carboxamide]", "IC50": "< 100"},
      {"smiles": "C[C@@H](NC(=O)[C@@H]1C[C@H](C2OCCCO2)CN1C(=O)CNC(=O)c1ccc(Oc2ccc(F)cc2)cc1)c1cc(C(=N)N)cs1", "note": "(relative stereo) [Compound 161, (2S,4S*)—N—((R)-1-(4-carbamimidoylthiophen-2-yl)ethyl)-4-(1,3-dioxan-2-yl)-1-((4-(4-fluorophenoxy)benzoyl)glycyl)pyrrolidine-2-carboxamide]", "IC50": "< 100"},
      {"smiles": "Cc1ccc(Oc2ccc(C(=O)NCC(=O)N3C[C@H](OC(F)F)C[C@H]3C(=O)NCc3cc(C(=N)N)cs3)cc2)cc1", "note": "[Compound 10, (2S,4R)—N-((4-carbamimidoylthiophen-2-yl)methyl)-4-(difluoromethoxy)-1-((4-(p-tolyloxy)benzoyl)glycyl)pyrrolidine-2-carboxamide]", "IC50": "< 100"},
      {"smiles": "C[C@@H](NC(=O)[C@@H]1CC2(CN1C(=O)CNC(=O)c1ccc3c(c1)-c1ccccc1C3)OCCO2)c1cc(C(=N)N)cs1", "note": "[Compound 111, (S)-7-((9H-fluorene-3-carbonyl)glycyl)-N—((R)-1-(4-carbamimidoylthiophen-2-yl)ethyl)-1,4-dioxa-7-azaspiro[4.4]nonane-8-carboxamide]", "IC50": "< 100"},
      {"smiles": "C[C@@H](NC(=O)[C@@H]1C[C@](F)(CF)CN1C(=O)CNC(=O)c1ccc(Oc2ccc(C(F)(F)F)cc2)cc1)c1cc(C(=N)N)cs1", "note": "[Compound 15, (2S,4R)—N-[(1R)-1-(4-carbamimidoylthiophen-2-yl)ethyl]-4-fluoro-4-(fluoromethyl)-1-[2-({4-[4-(trifluoromethyl)phenoxy]phenyl}formamido)acetyl]pyrrolidine-2-carboxamide]", "IC50": "< 100"},
      {"smiles": "CC(C)OC(=O)/N=C(/N)c1csc([C@@H](C)NC(=O)[C@@H]2CC3(CN2C(=O)CNC(=O)c2ccc4c(c2)-c2ccccc2C4(F)F)OCCO3)c1", "note": "[Compound 134, isopropyl ((E)-amino(5-((R)-1-((S)-7-((9,9-difluoro-9H-fluorene-3-carbonyl)glycyl)-1,4-dioxa-7-azaspiro[4.4]nonane-8-carboxamido)ethyl)thiophen-3-yl)methylene)carbamate]", "IC50": "< 100"},
      {"smiles": "N=C(N)c1csc(CNC(=O)[C@@H]2CC3(CN2C(=O)CNC(=O)c2ccc4c(c2)-c2ccccc2C4(F)F)OCCO3)c1", "note": "[Compound 55, (S)—N-((4-carbamimidoylthiophen-2-yl)methyl)-7-((9,9-difluoro-9H-fluorene-3-carbonyl)glycyl)-1,4-dioxa-7-azaspiro[4.4]nonane-8-carboxamide]", "IC50": "< 100"}
    ]},
    {"target": "Human complement C1s enzyme (Homo sapiens (Human), UniProt P09871)", "test": "Human C1s enzyme assay", "format": "biochemical", "details": "Human complement C1s enzyme 1.16 nM, substrate Z-L-Lys-SBzl 100 μM, assay of Example 3; read-out: IC50 (Stars)", "procedure,_shortened": "as §1", "units": {"IC50": "nM"}, "values": [
      {"smiles": "N=C(N)c1csc(CNC(=O)[C@@H]2CC3(CN2C(=O)CNC(=O)c2ccc(-c4ccncc4F)cc2)OCCO3)c1", "note": "[Compound 266, (S)—N-((4-carbamimidoylthiophen-2-yl)methyl)-7-((4-(3-fluoropyridin-4-yl)benzoyl)glycyl)-1,4-dioxa-7-azaspiro[4.4]nonane-8-carboxamide]", "IC50": "< 100"},
      {"smiles": "C[C@H](NC(=O)c1ccc(-c2ccccc2)cc1)C(=O)N1CC2(C[C@H]1C(=O)NCc1cc(C(=N)N)cs1)OCCO2", "note": "[Compound 300, (S)-7-(([1,1′-biphenyl]-4-carbonyl)-L-alanyl)-N-((4-carbamimidoylthiophen-2-yl)methyl)-1,4-dioxa-7-azaspiro[4.4]nonane-8-carboxamide]", "IC50": "< 100"},
      {"smiles": "C[C@@H](NC(=O)[C@@H]1C[C@](F)(CF)CN1C(=O)CNC(=O)c1ccc2oc3ccccc3c2c1)c1cc(C(=N)N)cs1", "note": "[Compound 223, (2S,4R)—N—((R)-1-(4-carbamimidoylthiophen-2-yl)ethyl)-1-((dibenzo[b,d]furan-2-carbonyl)glycyl)-4-fluoro-4-(fluoromethyl)pyrrolidine-2-carboxamide]", "IC50": "< 100"},
      {"smiles": "C[C@@H](NC(=O)[C@@H]1C[C@]2(C)C[C@@H]2N1C(=O)CNC(=O)c1ccc(Oc2ccccc2)cc1)c1cc(CC(=N)N)cs1", "note": "[Compound 276, (1S,3S,5S)—N—((R)-1-(4-(2-amino-2-iminoethyl)thiophen-2-yl)ethyl)-5-methyl-2-((4-phenoxybenzoyl)glycyl)-2-azabicyclo[3.1.0]hexane-3-carboxamide]", "IC50": "< 100"},
      {"smiles": "C[C@@H](NC(=O)[C@@H]1CC2(CN1C(=O)CNC(=O)c1ccc3c(c1)Sc1ccccc1O3)OCCO2)c1cc(C(=N)N)cs1", "note": "[Compound 312, (S)—N—((R)-1-(4-carbamimidoylthiophen-2-yl)ethyl)-7-((phenoxathiine-2-carbonyl)glycyl)-1,4-dioxa-7-azaspiro[4.4]nonane-8-carboxamide]", "IC50": "< 100"},
      {"smiles": "C[C@@H](NC(=O)[C@@H]1CC2(CN1C(=O)CNC(=O)c1ncc(-c3ccccc3)cc1F)OCCO2)c1cc(C(=N)N)cs1", "note": "[Compound 347, (S)—N—((R)-1-(4-carbamimidoylthiophen-2-yl)ethyl)-7-((3-fluoro-5-phenylpicolinoyl)glycyl)-1,4-dioxa-7-azaspiro[4.4]nonane-8-carboxamide]", "IC50": "< 100"},
      {"smiles": "C[C@@]12C[C@@H]1N(C(=O)CNC(=O)c1ccc(Oc3ccccc3)cc1)[C@H](C(=O)NCc1cc3c(s1)C(N)=NCC3)C2", "note": "[Compound 293, (1S,3S,5S)—N-((7-amino-4,5-dihydrothieno[2,3-c]pyridin-2-yl)methyl)-5-methyl-2-((4-phenoxybenzoyl)glycyl)-2-azabicyclo[3.1.0]hexane-3-carboxamide]", "IC50": "100 to 1000"},
      {"smiles": "C[C@@H](NC(=O)[C@@H]1C[C@](F)(COCCCCCC(=O)O)CN1C(=O)CNC(=O)c1ccc2c(c1)-c1ccccc1C2(F)F)c1cc(C(=N)N)cs1", "note": "[Compound 201, 6-(((3R,5S)-5-(((R)-1-(4-carbamimidoylthiophen-2-yl)ethyl)carbamoyl)-1-((9,9-difluoro-9H-fluorene-3-carbonyl)glycyl)-3-fluoropyrrolidin-3-yl)methoxy)hexanoic acid]", "IC50": "< 100"}
    ]}
  ]
}
